Here are results for three compounds from paper PMC9024363, “Study on the Biochemical Characterization and Selectivity of Three β-Glucosidases From Bifidobacterium adolescentis ATCC15703” (Frontiers in Microbiology, 2022).

Assay type in all cases: biochemical
For assay [1], the target named is T1, BaBgl3B (Bifidobacterium adolescentis, UniProt A1A2P5).
T1 construct: gene bglX; GH3; N-terminus from primer MSSCGC
T1 sequence (A1A2P5 1-809): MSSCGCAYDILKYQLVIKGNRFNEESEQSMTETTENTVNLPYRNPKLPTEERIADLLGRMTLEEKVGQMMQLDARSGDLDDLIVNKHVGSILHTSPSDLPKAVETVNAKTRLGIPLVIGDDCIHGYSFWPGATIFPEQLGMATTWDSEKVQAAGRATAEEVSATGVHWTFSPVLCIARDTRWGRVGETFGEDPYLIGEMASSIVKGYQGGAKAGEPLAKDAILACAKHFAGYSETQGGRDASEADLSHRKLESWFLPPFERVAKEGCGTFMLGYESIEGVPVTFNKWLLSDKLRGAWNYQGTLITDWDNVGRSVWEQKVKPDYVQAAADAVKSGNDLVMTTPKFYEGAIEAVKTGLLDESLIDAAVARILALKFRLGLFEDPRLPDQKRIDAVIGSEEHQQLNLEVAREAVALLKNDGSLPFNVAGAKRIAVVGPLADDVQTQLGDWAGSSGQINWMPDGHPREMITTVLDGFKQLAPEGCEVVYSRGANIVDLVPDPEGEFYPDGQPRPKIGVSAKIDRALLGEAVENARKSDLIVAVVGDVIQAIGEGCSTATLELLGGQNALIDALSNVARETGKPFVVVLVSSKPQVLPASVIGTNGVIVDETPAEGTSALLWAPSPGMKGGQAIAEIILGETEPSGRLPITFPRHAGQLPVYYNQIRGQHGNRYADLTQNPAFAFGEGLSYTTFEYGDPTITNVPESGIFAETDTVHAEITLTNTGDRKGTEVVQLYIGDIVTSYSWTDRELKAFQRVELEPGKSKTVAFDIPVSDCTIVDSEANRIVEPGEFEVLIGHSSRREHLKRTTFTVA
The assay is described as follows: pNPβGlc hydrolysis, absorbance […] nm.

Assay [2] addresses T2, BaBgl1A (Bifidobacterium adolescentis, UniProt A1A2Y5).
T2 construct: gene BAD_1287; GH1; N-terminus from primer MKEQYE
T2 sequence (A1A2Y5 1-391): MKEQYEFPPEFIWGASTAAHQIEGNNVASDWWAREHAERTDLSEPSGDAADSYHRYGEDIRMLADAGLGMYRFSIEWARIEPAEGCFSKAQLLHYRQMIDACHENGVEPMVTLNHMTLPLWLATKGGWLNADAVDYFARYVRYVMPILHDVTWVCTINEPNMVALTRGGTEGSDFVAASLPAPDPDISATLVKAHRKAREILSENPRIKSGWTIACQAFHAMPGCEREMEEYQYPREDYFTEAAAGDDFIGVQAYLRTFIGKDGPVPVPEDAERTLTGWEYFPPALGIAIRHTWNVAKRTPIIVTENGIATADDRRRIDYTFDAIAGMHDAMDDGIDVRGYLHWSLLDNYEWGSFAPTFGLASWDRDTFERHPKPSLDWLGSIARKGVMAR
As to the kind of experiment: pNPβGlc hydrolysis, absorbance […] nm.

For assay [3], the target named is T1, BaBgl3B. As to the kind of experiment: pNPβGlc hydrolysis, absorbance […] nm. To be noted: competitive; pNPβGlc substrate; optimum pH 6.5, 50 °C.
In assay [4] the target is T2, BaBgl1A. As to the kind of experiment: pNPβGlc hydrolysis, absorbance […] nm. To be noted: competitive; pNPβGlc substrate; optimum pH 6.0, 30 °C.
A further assay concerns the target T3, BaBgl3A (Bifidobacterium adolescentis, UniProt A1A2P2).
T3 construct: gene BAD_1194; GH3; N-terminus from primer MSENTY
T3 sequence (A1A2P2 1-751): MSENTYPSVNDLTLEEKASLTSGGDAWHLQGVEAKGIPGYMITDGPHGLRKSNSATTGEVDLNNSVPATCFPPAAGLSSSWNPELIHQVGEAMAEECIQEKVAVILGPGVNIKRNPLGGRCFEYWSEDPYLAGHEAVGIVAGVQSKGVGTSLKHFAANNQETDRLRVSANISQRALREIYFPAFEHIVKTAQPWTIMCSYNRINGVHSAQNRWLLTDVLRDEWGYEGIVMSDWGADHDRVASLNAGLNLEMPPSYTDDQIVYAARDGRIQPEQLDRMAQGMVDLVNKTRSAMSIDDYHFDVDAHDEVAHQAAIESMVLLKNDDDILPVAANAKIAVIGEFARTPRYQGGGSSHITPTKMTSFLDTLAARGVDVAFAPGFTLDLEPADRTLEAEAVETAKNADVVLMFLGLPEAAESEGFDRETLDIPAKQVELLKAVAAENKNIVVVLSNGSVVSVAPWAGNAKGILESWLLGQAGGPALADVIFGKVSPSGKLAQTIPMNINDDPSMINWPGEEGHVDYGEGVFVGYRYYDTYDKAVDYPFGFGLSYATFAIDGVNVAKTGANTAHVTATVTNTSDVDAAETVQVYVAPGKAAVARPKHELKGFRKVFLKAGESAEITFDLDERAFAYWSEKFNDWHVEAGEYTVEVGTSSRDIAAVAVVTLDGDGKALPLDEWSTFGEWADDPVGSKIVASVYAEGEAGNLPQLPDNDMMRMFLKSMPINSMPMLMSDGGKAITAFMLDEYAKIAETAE
The assay is described as follows: TLC and HPLC of products. To be noted: optimum pH, 37 °C, 2 h; 5 mg/ml substrate.

For the compound `OC[C@H]1OC(O)[C@@H](O)[C@@H](O)[C@@H]1O` (some centres unmarked) [mannose], the inhibition at 1 M against BaBgl3B [1] and at BaBgl1A [2] was above 70% each time.

In the case of `OCC1(O)OC[C@@H](O)[C@@H](O)[C@@H]1O` (some centres unmarked) [fructose], the “% inhibition” value was “mannose and fructose acted as competitive inhibitors for BaBgl1A and BaBgl3B” on BaBgl3B [3]; “mannose and fructose acted as competitive inhibitors for BaBgl1A and BaBgl3B” at BaBgl1A [4].

Take `CC(C)=CCC[C@](C)(O[C@@H]1O[C@H](CO[C@@H]2O[C@H](CO)[C@@H](O)[C@H](O)[C@H]2O)[C@@H](O)[C@H](O)[C@H]1O)[C@H]1CC[C@]2(C)[C@@H]1[C@H](O)C[C@@H]1[C@@]3(C)CC[C@H](O[C@@H]4O[C@H](CO)[C@@H](O)[C@H](O)[C@H]4O[C@@H]4O[C@H](CO)[C@@H](O)[C@H](O)[C@H]4O)C(C)(C)[C@@H]3CC[C@]12C` [Rb1]: the “TLC and HPLC of products” value on BaBgl3A was “Rb1 could be converted into Rd and Gyp XVII by BaBgl3A”.
